# Results taken from PubChem BioAssay AID1963962 (Molecular Pharmacology Branch, DTP, NCI, 2024).
# Test system: 967376-340-R-J2-PDC multicell spheroid viability
# Test: Anticancer human tumor 967376-340-R-J2-PDC patient-derived colon adenocarcinoma cell line growth inhibition [PI3K]
# Conditions: for IC50: curve of first compound; for viability, T/C: stronger effect = lower value
# Method in brief: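 Spheroid viability read-out. Co-cultures contained the tumor line plus HUVEC and human MSCs. Each agent was paired with a PI3K inhibitor (inavolisib, alpelisib, duvelisib, copanlisib) across half-log dilutions starting at clinical Cmax, or at 10 microM when Cmax was unknown.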
# [1] = second compound 0.0316 µM, first compound 0.0316 µM
# [2] = second compound 0.0316 µM, first compound 0.1 µM
# [3] = second compound 0.0316 µM, first compound 0.316 µM
# [4] = second compound 0.0316 µM, first compound 1 µM
# [5] = second compound 0.0316 µM, first compound 3.16 µM
# [6] = second compound 0.0316 µM, first compound 10 µM
# [7] = second compound 0.1 µM, first compound 0.0316 µM
# [8] = second compound 0.1 µM, first compound 0.1 µM
# [9] = second compound 0.1 µM, first compound 0.316 µM
# [10] = second compound 0.1 µM, first compound 1 µM
# [11] = second compound 0.1 µM, first compound 3.16 µM
# [12] = second compound 0.1 µM, first compound 10 µM
# [13] = second compound 0.316 µM, first compound 0.0316 µM
# [14] = second compound 0.316 µM, first compound 0.1 µM
# [15] = second compound 0.316 µM, first compound 0.316 µM
# [16] = second compound 0.316 µM, first compound 1 µM
# [17] = second compound 0.316 µM, first compound 3.16 µM
# [18] = second compound 0.316 µM, first compound 10 µM
# [19] = second compound 1 µM, first compound 0.0316 µM
# [20] = second compound 1 µM, first compound 0.1 µM
# [21] = second compound 1 µM, first compound 0.316 µM
# [22] = second compound 1 µM, first compound 1 µM
# [23] = second compound 1 µM, first compound 3.16 µM
# [24] = second compound 1 µM, first compound 10 µM
# [25] = second compound 3.16 µM, first compound 0.0316 µM
# [26] = second compound 3.16 µM, first compound 0.1 µM
# [27] = second compound 3.16 µM, first compound 0.316 µM
# [28] = second compound 3.16 µM, first compound 1 µM
# [29] = second compound 3.16 µM, first compound 3.16 µM
# [30] = second compound 3.16 µM, first compound 10 µM
# [31] = second compound 10 µM, first compound 0.0316 µM
# [32] = second compound 10 µM, first compound 0.1 µM
# [33] = second compound 10 µM, first compound 0.316 µM
# [34] = second compound 10 µM, first compound 1 µM
# [35] = second compound 10 µM, first compound 3.16 µM
# [36] = second compound 10 µM, first compound 10 µM
# 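Note: spheroids exposed to agents for 7 days before read-out.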
# 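Throughout, for viability, T/C: luminescence used as surrogate of cell viability.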
compound,measurement,setting,value
CC(C)NCC(C(=O)N1CCN(c2ncnc3c2C(C)CC3O)CC1)c1ccc(Cl)cc1 (stereo unspecified) + Cc1nc(NC(=O)N2CCCC2C(N)=O)sc1-c1ccnc(C(C)(C)C(F)(F)F)c1,IC50,second compound 0.0316 µM,> 10 µM
same,IC50,second compound 0.1 µM,> 10 µM
same,IC50,second compound 0.316 µM,> 10 µM
same,IC50,second compound 1 µM,> 10 µM
same,IC50,second compound 3.16 µM,> 10 µM
same,IC50,second compound 10 µM,> 10 µM
same,"viability, T/C",[1],118%
same,"viability, T/C",[2],100%
same,"viability, T/C",[3],115%
same,"viability, T/C",[4],80.5%
same,"viability, T/C",[5],77.8%
same,"viability, T/C",[6],80.8%
same,"viability, T/C",[7],96.4%
same,"viability, T/C",[8],82.3%
same,"viability, T/C",[9],85.1%
same,"viability, T/C",[10],70.3%
same,"viability, T/C",[11],68.4%
same,"viability, T/C",[12],87%
same,"viability, T/C",[13],88.6%
same,"viability, T/C",[14],78.6%
same,"viability, T/C",[15],65.5%
same,"viability, T/C",[16],81.1%
same,"viability, T/C",[17],84%
same,"viability, T/C",[18],70%
same,"viability, T/C",[19],62.3%
same,"viability, T/C",[20],64.2%
same,"viability, T/C",[21],73%
same,"viability, T/C",[22],78.4%
same,"viability, T/C",[23],72.3%
same,"viability, T/C",[24],63.5%
same,"viability, T/C",[25],67.1%
same,"viability, T/C",[26],68%
same,"viability, T/C",[27],56.8%
same,"viability, T/C",[28],50.7%
same,"viability, T/C",[29],62.4%
same,"viability, T/C",[30],57.4%
same,"viability, T/C",[31],56%
same,"viability, T/C",[32],54.8%
same,"viability, T/C",[33],52.4%
same,"viability, T/C",[34],49.1%
same,"viability, T/C",[35],55.6%
same,"viability, T/C",[36],50.5%
C#Cc1c(F)ccc2cc(O)cc(-c3ncc4c(N5CC6CCC(C5)N6)nc(OCC56CCCN5CC(F)C6)nc4c3F)c12 (stereo unspecified) + Cc1nc(NC(=O)N2CCCC2C(N)=O)sc1-c1ccnc(C(C)(C)C(F)(F)F)c1,IC50,second compound 0.0316 µM,> 10 µM
same,IC50,second compound 0.1 µM,> 10 µM
same,IC50,second compound 0.316 µM,9.86 µM
same,IC50,second compound 1 µM,5.16 µM
same,IC50,second compound 3.16 µM,3.53 µM
same,IC50,second compound 10 µM,< 0.0316 µM
same,"viability, T/C",[1],104%
same,"viability, T/C",[2],85.6%
same,"viability, T/C",[3],81.8%
same,"viability, T/C",[4],82.7%
same,"viability, T/C",[5],80.7%
same,"viability, T/C",[6],68%
same,"viability, T/C",[7],103%
same,"viability, T/C",[8],81.7%
same,"viability, T/C",[9],82.3%
same,"viability, T/C",[10],70.4%
same,"viability, T/C",[11],80.8%
same,"viability, T/C",[12],69.6%
same,"viability, T/C",[13],64.3%
same,"viability, T/C",[14],90%
same,"viability, T/C",[15],74.5%
same,"viability, T/C",[16],69.8%
same,"viability, T/C",[17],78.5%
same,"viability, T/C",[18],49.8%
same,"viability, T/C",[19],65.1%
same,"viability, T/C",[20],68.3%
same,"viability, T/C",[21],72.5%
same,"viability, T/C",[22],66.8%
same,"viability, T/C",[23],60.3%
same,"viability, T/C",[24],35.5%
same,"viability, T/C",[25],47.6%
same,"viability, T/C",[26],75.2%
same,"viability, T/C",[27],59%
same,"viability, T/C",[28],59.5%
same,"viability, T/C",[29],49.3%
same,"viability, T/C",[30],34.9%
same,"viability, T/C",[31],47.2%
same,"viability, T/C",[32],41.7%
same,"viability, T/C",[33],51.5%
same,"viability, T/C",[34],37.3%
same,"viability, T/C",[35],36.1%
same,"viability, T/C",[36],16.9%
C[C@@H](NC(=O)c1ncnc(N)c1Cl)c1ncc(C(=O)Nc2cc(C(F)(F)F)c(Cl)cn2)s1 + CC(Nc1ccc2c(c1)OCCn1cc(N3C(=O)OCC3C(F)F)nc1-2)C(N)=O,IC50,second compound 0.00316 µM,> 10 µM
same,IC50,second compound 0.01 µM,> 10 µM
same,IC50,second compound 0.0316 µM,> 10 µM
same,IC50,second compound 0.1 µM,> 10 µM
same,IC50,second compound 0.316 µM,> 10 µM
same,IC50,second compound 1 µM,> 10 µM
same,"viability, T/C","second compound 0.00316 µM, first compound 0.0316 µM",105%
same,"viability, T/C","second compound 0.00316 µM, first compound 0.1 µM",74.9%
same,"viability, T/C","second compound 0.00316 µM, first compound 0.316 µM",73.3%
same,"viability, T/C","second compound 0.00316 µM, first compound 1 µM",91.9%
same,"viability, T/C","second compound 0.00316 µM, first compound 3.16 µM",80.4%
same,"viability, T/C","second compound 0.00316 µM, first compound 10 µM",97.9%
same,"viability, T/C","second compound 0.01 µM, first compound 0.0316 µM",83.9%
same,"viability, T/C","second compound 0.01 µM, first compound 0.1 µM",98.7%
same,"viability, T/C","second compound 0.01 µM, first compound 0.316 µM",101%
same,"viability, T/C","second compound 0.01 µM, first compound 1 µM",94.8%
same,"viability, T/C","second compound 0.01 µM, first compound 3.16 µM",97.1%
same,"viability, T/C","second compound 0.01 µM, first compound 10 µM",130%
same,"viability, T/C",[1],62.2%
same,"viability, T/C",[2],107%
same,"viability, T/C",[3],69%
same,"viability, T/C",[4],98.9%
same,"viability, T/C",[5],95.2%
same,"viability, T/C",[6],109%
same,"viability, T/C",[7],72.9%
same,"viability, T/C",[8],67.8%
same,"viability, T/C",[9],63.6%
same,"viability, T/C",[10],77.7%
same,"viability, T/C",[11],75.2%
same,"viability, T/C",[12],66%
same,"viability, T/C",[13],65.5%
same,"viability, T/C",[14],70.6%
same,"viability, T/C",[15],78.2%
same,"viability, T/C",[16],73.5%
same,"viability, T/C",[17],77.2%
same,"viability, T/C",[18],70.9%
same,"viability, T/C",[19],69.4%
same,"viability, T/C",[20],62.2%
same,"viability, T/C",[21],56%
same,"viability, T/C",[22],57.9%
same,"viability, T/C",[23],69.9%
same,"viability, T/C",[24],62%
